Test results taken from patent US8946436B2, “Oxazolidinone compounds and their uses in preparation of antibiotics” (Sichuan Gooddoctor Pharmaceutical Group Co., Ltd., priority 2011, dated 2015).
≈ marks a conversion by molar mass, not a printed value. Read-outs that look alike come from different tables or passages of the source.

Columns and labels:
S. agalactiae = assay: In vitro antibacterial activity (MIC), S. agalactiae; format: cell-based; settings: Streptococcus agalactiae
Description: (§1) The test strain was inoculated into the liquid medium and cultured at 37° C. for 16-18 h. The culture liquid and MH medium were put into two blank wells of a 96-well plate, respectively. Then, the absorptions thereof were measured by a Microplate reader. The difference between the absorption values of the culture liquid and MH medium is the adsorption of the bacteria. The concentration of the culture liquid can be calculated according to the formula of 1OD=50 million CFU/mL. The culture liquid was diluted with the MH bouillon culture medium to 5000 CFU/mL for further use.
(§2) Compounds 12a, 13 and 14 were dissolved in DMSO to 1 mg/mL, and then filtered with a 0.22 μm filter to obtain the compound solutions. And then they were gradually diluted to a desired concentration (10× final concentration) with the liquid medium, so as to obtain a series of dilutions. The final concentration grade of the dilutions of each tested compound consists of 14 concentrations, which includes: 0.03125 μg/mL, […], 0.125 μg/mL, 0.25 μg/mL, […], 1 μg/mL, 2 μg/mL, 4 μg/mL, 8 μg/mL, 16 μg/mL, 32 μg/mL, 64 μg/mL, 128 μg/mL and 256 μg/mL.
(§3) 10 μL of each of the compound dilutions above was added into a well of a 96-well plate. 90 μL of the culture liquid (5000 CFU/mL) was added into each of the wells, respectively, mixed with the dilutions to render the tested compound concentration to the final concentration. The resulted mixture was incubated at 37° C. for 16-18 h, and then the OD630 thereof was measured. A culture liquid free of the tested compounds is used as a blank control, and three parallel tests with the same concentration of each compound were performed. The minimum inhibitory concentration (MIC) of each compound on the standard strain of Staphylococcus Aureus and other test strains was determined. Specifically, among the culture liquid contained in the wells of the micro-plate, the first three lowest concentrations under which growth of the test strains could be observed were chose for further evaluation of the MIC. A culture liquid free of tested compounds was used as a blank control. Each of the culture liquids was homogenized independently, and then was diluted with a sterile saline. Each of the diluted culture liquids was plated onto a MH bouillon plate and incubated at 37° C. for 20 h in incubator. After the incubation, the number of the colonies on each plate was counted. As compared with the blank control group, the lowest concentration of each of the test compound groups, at which 80% reduction in the colony number of the strains was achieved, was recorded as the MIC.

E. faecalis = assay: In vitro antibacterial activity (MIC), E. faecalis; format: cell-based; settings: Enterococcus faecalis
Description: as §1, §2, §3

L-02 = assay: Cytotoxicity experiment (MTT), L-02; format: cell-based; settings: Homo sapiens, L02, 48 h, L-02 normal cells, read-out: Inhibition ratio
Description: (§4) (1) Inoculating cells: Experimental cells in the growth of logarithmic phase were collected and suspended. The cell concentration of the suspension was adjusted so that they could be inoculated into the wells of 96-well micro plate at a density between 10^3-10^4 cells per well (200 μl per well). (2) Culturing cells: The cells were cultured at normal conditions for 3 days and then exposed to 50 uM compounds for test. (3) Coloring reaction: At 24 h, 48 h and 72 h after the cells being exposed to the compounds for test, 200 μl culture medium containing 20 μl MTT solution (5 mg/ml) was added into each well, and the well was further incubated at 37° C. for 2 hours to terminate the incubation. After the incubation, the supernatants were removed from the wells. In the event there were suspended cells in the wells, centrifugation should be performed before removal of supernatant from the wells. After the removal, 150 μl DMSO was added to each well and mixed thoroughly by agitation for 10 mins to fully dissolve crystals. (4) Ascertainment of colorimetry: The absorbance value at 490 nm of each well was determined by Enzyme-linked immunosorbent Monitor. The growth curve of the experimental cells was plotted by taking time as x-coordinate and absorbance value as y-coordinate. In addition, an inhibition ratio could be calculated in accordance with the following formula: Inhibition ratio=(absorbance value of control group-absorbance value of administering group)/absorbance value of control group×100%.

HEK-293 = assay: Cytotoxicity experiment (MTT), HEK-293; format: cell-based; settings: Homo sapiens, HEK293, 48 h, HEK-293 normal cells, read-out: Inhibition ratio
Description: as §4

S. aureus = assay: In vitro antibacterial activity (MIC), S. aureus; format: cell-based, Staphylococcus Aureus; settings: Staphylococcus aureus
Description: Strains: strain ATCC25923 is available from the American Type Culture Collection, and is used as a standard strain of Staphylococcus Aureus;
Liquid medium: MH bouillon culture medium, a product of BD Company, United States of American;
Tested Compounds: compounds 12a, 13 and 14 prepared according to the methods above, and Linezolid purchased from Pfizer.
as §1, §2, §3

S. pneumoniae = assay: In vitro antibacterial activity (MIC), S. pneumoniae; format: cell-based; settings: Streptococcus pneumoniae
Description: as §1, §2, §3

Structure (SMILES)	melting point	MIC (S. agalactiae; S. agalactiae (5 strains), read-out: MIC)	MIC (E. faecalis; E. faecalis (7 strains), read-out: MIC)	cytotoxicity at 50 µM (L-02)	cytotoxicity at 50 µM (HEK-293)	MIC (S. aureus; S. aureus (12 strains), read-out: MIC)	MIC (S. pneumoniae; S. pneumoniae (10 strains), read-out: MIC)	MIC (S. agalactiae)	MIC (E. faecalis)	MIC (S. aureus)	MIC (S. pneumoniae)
CC(=O)NC[C@H]1CN(c2ccc(-n3nccc3-c3ccc(F)cc3)c(F)c2)C(=O)O1 [Compound 14i, (S)-N-((3-(3-fluoro-4-(5-(4-fluorophenyl)-1H-pyrazol-1-yl)phenyl)-2-oxooxazolidin-5-yl)methyl)acetamide]	111.4 to 112.9 °C	0.5 to 4 µg/mL (≈ 1.21 to 9.7 µM)	1 to 8 µg/mL (≈ 2.42 to 19.4 µM)	9%	5.5%	1 to 8 µg/mL (≈ 2.42 to 19.4 µM)	0.5 to 8 µg/mL (≈ 1.21 to 19.4 µM)	–	–	–	–
COc1ccc(-c2ccnn2-c2ccc(N3C[C@H](CNC(C)=O)OC3=O)cc2F)cc1OC [Compound 14j, (S)-N-((3-(3-fluoro-4-(5-(3,4-dimethoxyphenyl)-1H-pyrazol-1-yl)phenyl)-2-oxooxazolidin-5-yl)methyl) acetamide]	153.7 to 156.1 °C	–	–	12%	7%	–	–	0.25 to 2 µg/mL (≈ 0.55 to 4.4 µM)	0.5 to 2 µg/mL (≈ 1.1 to 4.4 µM)	0.25 to 2 µg/mL (≈ 0.55 to 4.4 µM)	0.25 to 1 µg/mL (≈ 0.55 to 2.2 µM)
